Experiment in all cases: Postemergence herbicide evaluation, percent reduction in plant size vs untreated control, 21 days after treatment
Assay [1] deals with Conyza canadensis (L.) (ERICA). Format: in vivo, Conyza canadensis (L.) (Horseweed). Particulars: Erigeron canadensis, post-emergence, 504 h, ERICA, postemergence, percent reduction vs untreated control, 21 days after treatment, read-out: Control/Injury; for pest or weed control at 140 g/ha: rate 140 g ae/ha; for pest or weed control at 280 g/ha: rate 280 g ae/ha. The protocol: (§1) Plants were grown in a soil media composed of 90% by volume Promix BX (Premier Tech Horticulture, Quakertown, PA) and 10% Profile Greens Grade (Profile Products LLC, Buffalo Grove, IL). Promix BX contains approximately 83% Sphagnum Peat Moss, 13% Perlite, 5% vermiculite, and proprietary amounts of limestone, starter fertilizer, and wetting agent. Profile Greens Grade is a sand-sized granule formed from calcining illite and montmorillonite clay. Several seeds of each species were planted in 10 cm square pots and top watered twice daily. Plant material was propagated in a warm greenhouse with temperature ranging from 25 to 28° C. and 50 to 60% relative humidity at the Corteva Global Headquarters (Indianapolis, Indiana, USA). Natural light was supplemented with 1000-watt metal halide overhead lamps with an average illumination of 500 μE m^−2 s^−1 photosynthetic active radiation for 16 consecutive hours each day. Plants were top-watered prior to herbicide application and sub-watered after herbicide application.
(§2) Appropriate amounts of test materials were weighed out into glass vials in their technical form to deliver either 140 or 280 g acid equivalent (ae)/ha. The samples were dissolved in 3 ml of Solvent 1. Solvent 1 is 97% acetone and 3% dimethyl sulfoxide and serves as a general-purpose solvent (GPS) for dissolving technical materials. […] The samples were then diluted to their final concentration using 17 ml of solvent 2 for a total of 20 ml of spray solution. Solvent 2 contains 41.58% GPS, 45.53% water, 11.88% isopropyl alcohol, 0.99% crop oil concentrate and 0.02% Trition X-155 surfactant. All percentages are listed on a volume basis. Dicamba diglycolamine was applied as a formulated herbicide, Clarity™ and diluted with solvent 2 to compare all materials in the same spray solution.
(§3) Herbicide applications were made to 3 to 4 replicates of each plant species at the 2 to 8 leaf stage, depending on the species. Treatments were applied with a research track-sprayer (Generation III Research Sprayer manufactured by DeVries Manufacturing in Hollandale, MN, USA) calibrated to deliver a spray volume of 187 L/ha. The track-sprayer was fitted with an 8003E nozzle from Spray Systems Company (North Avenue and Schmale Road, P.O. Box 7900, Wheaton, IL 60187), and used a spray pressure of 276 kPa pressure and a speed of 3.1 km/h. The nozzle height was 46 cm above the plant canopy. The experimental design used for the trials was a randomized complete block with 3 or 4 replications per treatment. After application, plants were placed on carts according to the randomization and returned to the greenhouse. Plants were sub-watered after treatment with Indianapolis city water or fertilized three times a week with a commercial fertilizer solution (Jack's Professional 15-5-15 4 Ca 2 Mg fertilizer (manufactured by JR PETERS INC., 6656 Grant Way, Allentown, PA 18106; www.jrpeters.com). Percent visual control assessments were made on a scale of 0 to 100% (where 0 was no control and 100 was complete plant death) at 7, 14, and 21 days after treatment.
In conformity with the methods outlined in Example 49, the effect of representative experimental compounds on the growth of Conyza canadensis (L.), (ERICA), common name, Horseweed, was determined at 2 different levels (respectively, 140 and 280 g acid equivalent (ae)/ha) of the experimental actives tested. Plants were treated with one of the compounds, a control plant was not treated. Twenty-one days after treatment, the plants were measured. The data is present as a percent reduction in plant size relative to the untreated control.

Assay [2] concerns Amaranthus palmeri (AMAPA). Format: in vivo, Amaranthus palmeri (Palmer amaranth). Particulars: post-emergence, 504 h, R-AMAPA, postemergence, percent reduction vs untreated control, 21 days after treatment, read-out: Control/Injury; for pest or weed control at 140 g/ha: rate 140 g ae/ha; for pest or weed control at 280 g/ha: rate 280 g ae/ha. The procedure: as §1, §2, §3
In conformity with the methods outlined in Example 49, the effect of representative experimental compounds on the growth of Amaranthus palmeri (AMAPA), common name, Palmer amaranth, was determined at 2 different levels (respectively, 140 and 280 g acid equivalent (ae)/ha) of the experimental actives tested. Plants were treated with one of the compounds, a control plant was not treated. Twenty-one days after treatment, the plants were measured. The data is present as a percent reduction in plant size relative to the untreated control.

Assay [3] deals with Ambrosia artemisiifolia (AMBEL). Format: in vivo, Ambrosia artemisiifolia (common ragweed). To be noted: post-emergence, 504 h, AMBEL, postemergence, read-out: Control/Injury; for pest or weed control at 280 g/ha: rate 280 g ae/ha; for pest or weed control at 140 g/ha: rate 140 g ae/ha. The procedure:
as §1, §2, §3
In conformity with the methods outlined in Example 49, the effect of representative experimental compounds on the growth of Ambrosia artemisiifolia (AMBEL), (common ragweed), was determined at 2 different levels (respectively, 140 and 280 g acid equivalent (ae)/ha) of the experimental actives tested. Plants were treated with one of the compounds, a control plant was not treated. Twenty-one days after treatment, the plants were measured. The data is present as a percent reduction in plant size relative to the untreated control.

Another assay has as its system Kochia scoparia (KCHSC). The class given is in vivo. To be noted: KCHSC, postemergence; for pest or weed control at 140 g/ha / pest or weed control at 280 g/ha: Bassia scoparia, post-emergence, 504 h, read-out: Control/Injury; for pest or weed control at 280 g/ha: rate 280 g ae/ha. The protocol:
as §1, §2, §3
In conformity with the methods outlined in Example 49, the effect of representative experimental compounds on the growth of Kochia scoparia (KCHSC) was determined at 2 different levels (respectively, 140 and 280 g acid equivalent (ae)/ha) of the experimental actives tested. Plants were treated with one of the compounds, a control plant was not treated. Twenty-one days after treatment, the plants were measured. The data is present as a percent reduction in plant size relative to the untreated control.

For another assay, the system named is Amaranthus rudis (AMATA). Format: in vivo, Amaranthus rudis (tall water hemp). To be noted: Amaranthus tuberculatus, post-emergence, 504 h, AMATA, postemergence, read-out: Control/Injury; for pest or weed control at 280 g/ha: rate 280 g ae/ha; for pest or weed control at 140 g/ha: rate 140 g ae/ha. The protocol:
as §1, §2, §3
In conformity with the methods outlined in Example 49, the effect of representative experimental compounds on the growth of Amaranthus rudis (AMATA), common name tall water hemp, was determined at 2 different levels (respectively, 140 and 280 g acid equivalent (ae)/ha) of the experimental actives tested. Plants were treated with one of the compounds, a control plant was not treated. Twenty-one days after treatment, the plants were measured. The data is present as a percent reduction in plant size relative to the untreated control.

SMILES strings stand for the structures.

`COc1c(Cl)ccc(Cl)c1C(=O)O/N=C(\N)c1cccc(Cl)c1` [Compound A-12]: in assay [1], the pest or weed control at 140 g/ha amounted to 72% and the pest or weed control at 280 g/ha was found to be 87%.

On to `COc1c(Cl)ccc(Cl)c1C(=O)O/N=C(\N)c1cc(Cl)cc(Cl)c1` [Compound A-16], for which, in assay [1], the pest or weed control at 140 g/ha was determined as 68% and the pest or weed control at 280 g/ha was found to be 78%.

Regarding `COc1c(Cl)ccc(Cl)c1C(=O)O/N=C(\N)c1ccc2[nH]ccc2c1` [Compound A-28], in assay [1], the pest or weed control at 140 g/ha stood at 70% and the pest or weed control at 280 g/ha was 83%.

On to `COc1c(Cl)ccc(Cl)c1C(=O)O/N=C(\N)c1ccc2[nH]cnc2c1` [Compound A-29], for which, in assay [1], the pest or weed control at 140 g/ha was 40% and the pest or weed control at 280 g/ha came to 40%.

Consider `COc1c(Cl)ccc(Cl)c1C(=O)O/N=C(\N)c1cccc2ccccc12` [Compound A-30], for which, in assay [1], the pest or weed control at 140 g/ha was determined as 50% and the pest or weed control at 280 g/ha amounted to 22%.

For the compound `COc1c(Cl)ccc(Cl)c1C(=O)OCc1ccccc1` [Compound A-44], the values for the pest or weed control at 140 g/ha (in assay [2]; with Kochia scoparia (KCHSC) (rate 140 g ae/ha)) were 80% and 60%, respectively. Also, the pest or weed control at 280 g/ha was determined as 85% in assay [2], 80% in assay [3], 90% in the assay on Kochia scoparia (KCHSC) and 60% in the assay with Amaranthus rudis (AMATA). The compound further registered a Control/Injury with Kochia scoparia (KCHSC) (rate 140 g ae/ha) of 60.

Turning to `COc1c(Cl)ccc(Cl)c1C(=O)O/N=C(\C)c1cccnc1` [Compound A-47], the pest or weed control at 140 g/ha in assay [2] worked out at 90%; in assay [3], 85%; in the assay with Kochia scoparia (KCHSC) (rate 140 g ae/ha), 98%. Also, the pest or weed control at 280 g/ha was 95% in assay [2], 100% in assay [3], 100% in the assay on Kochia scoparia (KCHSC) and 75% in the assay with Amaranthus rudis (AMATA).

`COc1c(Cl)ccc(Cl)c1C(=O)O/N=C/c1ccc(/C=N/OC(=O)c2c(Cl)ccc(Cl)c2OC)cc1` [Compound A-57]: the values for the pest or weed control at 280 g/ha (in assay [2]; in assay [3]; in the assay with Kochia scoparia (KCHSC)) were 100%, 98% and 100%, respectively. Besides, the pest or weed control at 140 g/ha in assay [3] turned out to be 95%; in the assay on Kochia scoparia (KCHSC) (rate 140 g ae/ha), 92%; in the assay on Amaranthus rudis (AMATA), 95%.

For `COc1c(Cl)ccc(Cl)c1C(=O)Nc1ccncc1` [Compound A-61], the pest or weed control at 140 g/ha stood at 85% in assay [2], 99% in assay [3], 98% in the assay on Kochia scoparia (KCHSC) (rate 140 g ae/ha) and 85% in the assay on Amaranthus rudis (AMATA). For the same compound, the pest or weed control at 280 g/ha is 100% in assay [2], 98% in assay [3], 99% with Kochia scoparia (KCHSC) and 90% in the assay on Amaranthus rudis (AMATA).

Consider `CCN(CC)OC(=O)c1c(Cl)ccc(Cl)c1OC` [Compound A-64], for which the pest or weed control at 140 g/ha in assay [1] was 3%; in assay [2], 3%; in assay [3], 5%; with Kochia scoparia (KCHSC) (rate 140 g ae/ha), 0%; with Amaranthus rudis (AMATA), 3%. Besides, the pest or weed control at 280 g/ha in assay [1] came to 10%; in assay [2] it was 20%; in assay [3] it was 12%; with Kochia scoparia (KCHSC), 3%; with Amaranthus rudis (AMATA), 2%.

`COc1c(Cl)ccc(Cl)c1C(=O)N1CCOCC1` [Compound A-65]: the pest or weed control at 140 g/ha in assay [1] was found to be 8%; in assay [2], 33%; in assay [3], 40%; in the assay on Kochia scoparia (KCHSC) (rate 140 g ae/ha), 28%; with Amaranthus rudis (AMATA), 15%. Further, the pest or weed control at 280 g/ha in assay [1] came to 28%; in assay [2] it was 33%; in assay [3], 55%; in the assay on Kochia scoparia (KCHSC), 37%; with Amaranthus rudis (AMATA) it was 23%.

With `COc1c(Cl)ccc(Cl)c1C(=O)ONC(N)=O` [Compound A-67], the pest or weed control at 140 g/ha in assay [1] was determined as 2%; in assay [2], 13%; in assay [3] it was 3%; with Kochia scoparia (KCHSC) (rate 140 g ae/ha), 3%; with Amaranthus rudis (AMATA), 0%. Moreover, the pest or weed control at 280 g/ha in assay [1] came to 3%; in assay [2] it was 10%; in assay [3], 3%; with Kochia scoparia (KCHSC), 2%; in the assay on Amaranthus rudis (AMATA) it was 2%.

Regarding `COc1c(Cl)ccc(Cl)c1C(=O)ONC(C)=O` [Compound A-68], the pest or weed control at 140 g/ha in assay [1] was found to be 8%; in assay [2], 42%; in assay [3], 55%; in the assay on Kochia scoparia (KCHSC) (rate 140 g ae/ha), 58%; in the assay on Amaranthus rudis (AMATA), 23%. Also, the pest or weed control at 280 g/ha in assay [1] was found to be 23%; in assay [2], 52%; in assay [3], 58%; with Kochia scoparia (KCHSC), 82%; in the assay on Amaranthus rudis (AMATA) it was 40%.

For the compound `COc1c(Cl)ccc(Cl)c1C(=O)C(Cl)(Cl)Cl` [Compound A-96], in assay [1], the pest or weed control at 140 g/ha is 0% and the pest or weed control at 280 g/ha is 0%.

These data come from patent US20240122179A1, “AUXINIC HERBICIDES AND METHODS OF USE THEREOF” (CORTEVA AGRISCIENCE LLC, priority 2021, published 2024).
